{"source": "patent US7105521B2", "about": "“Eugenosedin-A based pharmacoligical agents” (Syn-Tech Chem & Pharm Co., Ltd., priority 2003, dated 2006)", "key": {"Blood glucose after LPS": {"experiment": "Blood glucose after LPS", "format": "in vivo, Wistar rats", "method": "(§1) Plasma cytokine immunoreactivity and blood glucose. Blood was collected from venous cannula, injected into ice-cold heparinized Eppendorf tubes and centrifuged at 1500 rpm for 10 min at 4° C. Plasma supernatant was stored at −70° C. until analyzed. Solid phase enzyme immunoassay that specifically detects murine IL-1β, IL-6, IFN-γ and TNF-α was used with a detection limit of >10 pg/ml (Endogen, U.S.A). Pretreatment with eugenosedin-A and other agents was performed 15 minutes before intravenous injection of LPS. Blood was collected from venous cannula. Blood glucose was measured with a glucose test strip (Glucotide, Bayer, U.S.A) at 1, 3 and 5 hours."}, "α1 receptors": {"target": "α1 receptors", "experiment": "Receptor binding, [3H]prazosin, rat cortex", "set-up": "species or system Wistar rat", "method": "(§2) Drugs and chemicals. […] Eugenosedin-A synthesized in this laboratory was solvated in 50% absolute alcohol, 10% propylene glycol and further diluted with distilled water. All of the [^3H] ligand was purchased from New England Nuclear Corp. (Boston, Mass., U.S.A.).\n(§3) Receptor binding studies. […] The homogenate was pressure filtered through muslin. Filtrate was centrifuged at 1000 g for 10 min. Supernatant was centrifuged at 10,000 g for 12 min at 4° C. The second supernatant was centrifuged at 30,000 g for 15 min at 4° C. The final pellet was re-suspended in assay buffer (75 mM Tris HCl, 25 mM MgCl2, pH 7.4). Protein content was determined by Bradford's method. Radioligand agents and membranes (200–300 μg) were incubated for 60 min at 25° C. with or without the addition of nonspecific binding agents, in a 75 mM Tris HCl buffer with 25 mM MgCl2, to make a final volume of 500 μl. In competitive-binding experiments, the competing agent was added directly to the incubation mixture. Incubation was terminated by addition of 1 ml of ice-cold assay buffer followed by immediate filtration through Whatman GF/C glass fiber filters supported on a 12-port filter manifold (Millipore). The filters were immediately washed 3 times with 5 ml of ice-cold assay buffer and dried in an oven at 60° C. for 2 hours before adding 5 ml of Triton-toluene-based scintillation fluid. Membrane-bound radioligand trapped in the filters was counted in a Beckman LS6500 scintillation system (Fullerton, Calif., U.S.A) with an efficiency of 45%. In each experiment, nonspecifically bound radioligand agents were determined by incubating membrane protein. Specific binding for each sample was obtained by deducting this value from the total binding of radioligand agents."}, "[1]": {"tested_on": "Fe2+-ascorbic acid-induced lipid peroxidation", "experiment": "Lipid peroxidation (TBARS) in rat brain homogenate", "format": "biochemical", "conditions": "n=5, read-out: IC50 of inhibition of Fe2+-ascorbic acid-induced lipid peroxidation", "method": "Antioxidant and peroxyl radical scavenging activities. Rat brain homogenate was made in 0.9% saline containing 10 mg tissue/ml. The rates of membrane lipid peroxidation were measured by the formation of thiobarbituric acid (TBA)-reactive substance (TBARS). Rat brain homogenates (1 ml) were incubated at 37° C. for 5 min with 10 μl of test compound or vehicle. Lipid peroxidation was initiated by the addition of 0.1 ml of 0.25 mM FeCl2 and 1 mM ascorbic acid (Huang Y C. et al., Drug. Dev. Res., 47:77–89, 1999). After 30 min of incubation, the reaction was stopped by adding 0.1 ml of 0.2% BHT. TBA reagent was then added and the mixture was heated for 30 min in a boiling water bath. TBARS was extracted by n-butanol and measured at 532 nm. The amount of TBARS was quantified using the linear regression obtained from malondialdehyde (MDA) standards."}, "α2-adrenoceptor": {"tested_on": "α2-adrenoceptor", "experiment": "Intra-cisternal antagonism of clonidine-induced hypotension and bradycardia", "format": "in vivo, rats", "method": "Intra-cisternal injections. […] Briefly, rats weighing 250–300 g were anaesthetized with pentobarbital sodium (50 mg kg^−1, i.p.) and mounted in a David-Kopf stereotaxic instrument (Yeh J L. et al., Brain. Res. Bull., 30:641–648, 1993). The calvarium was exposed and a 1 mm diameter trephine hole was drilled 1.8 mm lateral to the coronary and 1.5 mm posterior to the sagittal sutures. A cannula (0.7 mm O.D.) connected to a Hamilton syringe (RN-705, 5051) by PE-50 was advanced 4.7 mm into the brain using the electrode carrier."}, "IL-6": {"tested_on": "IL-6", "experiment": "Plasma cytokine immunoreactivity after LPS: IL-6", "format": "in vivo, Wistar rats", "conditions": "3 hours after LPS 10 mg kg^−1 i.v.; pretreatment 1 mg kg^−1 i.v.", "method": "as §1"}, "[2]": {"experiment": "LPS-induced vascular hyporeactivity of isolated aorta to phenylephrine", "format": "in vivo, rats", "source_text": "(§4) Isolation of rat thoracic aorta. Rat thoracic aorta was removed, cleaned of adhering fat and connective tissue and cut into 3–4 mm wide transverse rings."}, "IL-1β": {"tested_on": "IL-1β", "experiment": "Plasma cytokine immunoreactivity after LPS: IL-1β", "format": "in vivo, Wistar rats", "conditions": "3 hours after LPS 10 mg kg^−1 i.v.; pretreatment (eugenosedin-A 1 mg kg^−1 i.v.)", "method": "as §1"}, "[3]": {"experiment": "Intravenous injection: BP and HR in pentobarbital-anesthetized rats", "format": "in vivo, Wistar rats", "method": "Intravenous injection. The experiments were carried out as previously described (Wu B N. et al., Biochem. Pharmacol., 48:101–109, 1994). In brief, Wistar rats weighing 250–300 grams were anesthetized with pentobarbital sodium (50 mg kg^−1, i.p.). Following tracheal cannulation, systemic arterial BP and HR were recorded from the femoral artery by a pressure transducer (model P10EZ; Spectramed, Oxnard, Calif., U.S.A.) connected to a recorder (GOULD, Valley View, Ohio, Model P50). Body temperature was maintained at 37° C. by an electric heating pad. A femoral vein was cannulated for intravenous injection of drugs and LPS (10 mg kg^−1)."}, "α1-adrenoceptors": {"tested_on": "α1-adrenoceptors", "experiment": "Noradrenaline-induced contraction of isolated rat thoracic aorta", "format": "cell-based", "conditions": "10^−8, 10^−7, 10^−6 M", "source_text": "as §4"}, "β1 receptors": {"target": "T1, β1 receptors (Rattus norvegicus, UniProt P18090)", "T1 construct": "with [^3H]CGP-12177 on β1 receptors in rat ventricle; from tissue; host or cells: Wistar rat heart (ventricle) membranes", "T1 sequence (P18090 whole entry)": "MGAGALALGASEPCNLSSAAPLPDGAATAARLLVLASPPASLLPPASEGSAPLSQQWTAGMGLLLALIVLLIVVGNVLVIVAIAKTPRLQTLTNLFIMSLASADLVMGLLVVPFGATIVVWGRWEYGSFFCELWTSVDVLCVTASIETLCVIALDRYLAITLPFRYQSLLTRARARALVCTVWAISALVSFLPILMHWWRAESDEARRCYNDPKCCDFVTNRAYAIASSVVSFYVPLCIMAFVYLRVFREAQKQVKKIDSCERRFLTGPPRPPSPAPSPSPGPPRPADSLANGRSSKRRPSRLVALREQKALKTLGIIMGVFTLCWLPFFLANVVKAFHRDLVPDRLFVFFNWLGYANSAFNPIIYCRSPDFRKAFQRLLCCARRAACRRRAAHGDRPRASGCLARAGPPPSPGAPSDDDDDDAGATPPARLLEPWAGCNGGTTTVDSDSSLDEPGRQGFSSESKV", "experiment": "Receptor binding, [3H]CGP-12177, rat ventricle", "set-up": "species or system Wistar rat", "method": "as §2\nas §3, with “Incubation was terminated by addition of 1 ml of ice-cold assay buffer followed by immediate filtration through Whatman GF/C glass fiber filters supported on a 12-port filter manifold (Millipore). The filters were immediately washed 3 times with 5 ml of ice-cold assay buffer and dried in an oven at 60° C. for 2 hours before adding 5 ml of Triton-toluene-based scintillation fluid.” left out, “Specific binding for each sample was obtained by deducting this value from the total binding of radioligand agents.” left out"}, "[4]": {"conditions": "i.v., pentobarbital-anesthetized rats"}}}
{"smiles": "CC=Cc1ccc(OCC(O)CN2CCN(c3ccccc3Cl)CC2)c(OC)c1", "note": "(stereo not drawn) [eugenosedin-A]", "values": [{"measurement": "initial hyperglycemic response to LPS", "setting": "Blood glucose after LPS; blood glucose at 1 and 3 hours after LPS", "result": "inhibited the initial hyperglycemic response to LPS"}, {"measurement": "hypoglycemic response to LPS", "setting": "Blood glucose after LPS; blood glucose at 5 hours after LPS", "result": "did not reverse the hypoglycemic response"}, {"measurement": "Ki", "setting": "α1 receptors", "result": 142, "unit": "nM"}, {"measurement": "order of α1 receptor binding potency", "setting": "α1 receptors", "result": "prazosin >ketanserin >eugenosedin-A >methylsergide, propranolol and 5-HT"}, {"measurement": "IC50", "setting": "[1]", "result": "2680 ± 50", "unit": "nM"}, {"measurement": "bradycardic effect of clonidine", "setting": "α2-adrenoceptor; 0.3 μmol", "result": "reduced the bradycardic effect of clonidine"}, {"measurement": "hypotensive effect of clonidine", "setting": "α2-adrenoceptor; given 15 min before clonidine injection", "result": "antagonized the hypotensive effect of clonidine"}, {"measurement": "clonidine-induced bradycardia", "setting": "α2-adrenoceptor; low dose, 0.03 μmol", "result": "did not inhibit clonidine-induced bradycardia"}, {"measurement": "LPS-induced increase in IL-6", "setting": "IL-6", "result": "significantly inhibited"}, {"measurement": "aortic contractility to phenylephrine in LPS-treated rats", "setting": "[2]; 1 mg kg^−1 i.v. before or after LPS, phenylephrine 10^−8~10^−4 M", "result": "increased aortic contractility more than the vehicle group"}, {"measurement": "protection from LPS-induced hyporeactivity of the aorta compared with yohimbine, trazodone, aminoguanidine and ascorbic acid", "setting": "[2]; rat, in vivo", "result": "more effective"}, {"measurement": "LPS-induced increase in IL-1β", "setting": "IL-1β", "result": "significantly inhibited"}, {"measurement": "effect on arterial blood pressure after acute intravenous injection", "setting": "[3]; 0.1, 0.5, 1.0 mg kg^−1 i.v., pentobarbital-anesthetized Wistar rats", "result": "mild arterial hypotension"}, {"measurement": "depressor effect compared with trazodone and ketanserin", "setting": "[3]; i.v., pentobarbital-anesthetized Wistar rats", "result": "less than that of trazodone and ketanserin"}, {"measurement": "mean BP and HR after intravenous administration", "setting": "[3]; [4]", "result": "dose-dependent decrease in mean BP and HR"}, {"measurement": "phenylephrine- and isoprenaline-induced changes in BP and HR", "setting": "[3]; [4]", "result": "inhibited phenylephrine- and isoprenaline-induced changes in BP and HR"}, {"measurement": "cumulative noradrenaline-induced contractile activities", "setting": "α1-adrenoceptors", "result": "competitively inhibited"}, {"measurement": "binding affinity for β1-adrenoceptors", "setting": "β1 receptors", "result": "some binding affinity for β1-adrenoceptors"}]}
